Test results from US11414385B2, “Compounds and methods for treating, detecting, and identifying compounds to treat apicomplexan parasitic diseases” (The University of Chicago, priority 2015, dated 2022).
Like-named read-outs stand apart in the source and are kept apart here.

Assays:
[1] = test system: T. gondii bradyzoites (EGS strain); test: EGS strain bradyzoite assay (cysts in HFF, dolichos/BAG1 staining); format: cell-based, Toxoplasma gondii; details: for IC50: EGS strain
Method: (§1) HFF cells were grown in IMDM (1×, [+] glutamine, [+] 25 mM HEPES, [+] Phenol red, 10% FBS, [Gibco, Denmark]) on removable, sterile glass disks in the bottom of a clear, flat-bottomed 24-well plate. Cultures were infected with 3×10^4 parasites (EGS strain) per well, in 0.5 mL media and plate was returned to incubator at 37° C. overnight. The following day, the media was removed and clear IMDM and compounds were added to making various concentrations of the drug, to a total volume of 0.5 mL. Two wells were filled with media only, as a control. Plates were returned to the 37° C. incubator for 72 hours.
Efficacy was determined following fixation. Staining was used to determine the numbers of cysts in cultures without and with treatment with the test compounds. Cells were fixed using 4% paraformaldehyde and stained with Fluorescein-labeled Dolichos Biflorus Agglutinin, DAPI, and anti-BAG1, and anti-SAG1. Disks were removed and mounted onto glass slides and visualized using microscopy (Nikon Tl7). Slides were also scanned using a CRi Pannoramic Scan Whole Slide Scanner and viewed using Panoramic Viewer Software.
as §1, with “[gibco,” for “[Gibco,”, “2” for “Two”, “72 hours, and checked once every 24” for “72”, “hours. If tachyzoites were visible in the control before 72 hours, the cells were fixed and stained.” for “hours.”
Cells were fixed using 4% paraformaldehyde and stained with Fluorescein-labeled Dolichos Biflorus Agglutinin, DAPI, and BAG1. Disks were removed and mounted onto glass slides and visualized using microscopy (Nikon Tl7). Slides were scanned using a CRi Pannoramic Scan Whole Slide Scanner and viewed using Panoramic Viewer Software. Effects of the compounds were quantified by counting cysts in the controls and treated cells. Cysts and persisting organisms were counted in a representative field of view and then multiplied by a factor determined by the total area of the disk in order to estimate the number of cysts and organisms in each condition.
HFF cells were grown in IMDM (1×, [+] glutamine, [+] 25 mM HEPES, [+] Phenol red, 10% FBS, [gibco, Denmark]) on removable, sterile glass disks in the bottom of a clear, flat-bottomed 24-well plate. Cultures were infected with 3×10^4 parasites (EGS strain) per well, in 0.5 mL media and plate was returned to incubator at 37° C. overnight. The following day, the media was removed and clear IMDM and compounds were added to making various concentrations of the drug, to a total volume of 0.5 mL. 2 wells were filled with media only, as a control. Plates were returned to the 37° C. incubator for 72 hours, and checked once every 24 hours. If tachyzoites were visible in the control before 72 hours, the cells were fixed and stained. Cells were fixed using 4% paraformaldehyde and stained with Fluorescein-labeled Dolichos Biflorus Agglutinin, DAPI, and BAG1. Disks were removed and mounted onto glass slides and visualized using microscopy (Nikon Tl7). Slides were scanned using a CRi Pannoramic Scan Whole Slide Scanner and viewed using Panoramic Viewer Software. Effects of the compounds were quantified by counting cysts in the controls and treated cells. Cysts and persisting organisms were counted in a representative field of view and then multiplied by a factor determined by the total area of the disk in order to estimate the number of cysts and organisms in each condition. Data was collected using Gen5 software. IC50 was calculated by graphical analysis in Excel.

[2] = test system: P. falciparum strains D6, TM91-C235, W2, C2B; test: Malaria SYBR Green I-Based Fluorescence (MSF) Assay; format: cell-based, Plasmodium falciparum; details: Plasmodium falciparum
Procedure, shortened: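 Growth inhibition of P. falciparum strains in a microtiter drug sensitivity assay, with parasite proliferation measured as malarial DNA content via SYBR Green I intercalation fluorescence. Strains: drug-sensitive D6, multi-drug resistant TM91-C235, chloroquine-resistant W2, and atovaquone-resistant C2B.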

MDCK-MDR1 cells = test: in vitro; format: in vitro ADME; details: dog, MDCK-MDR1
[3] = D6 strain, read-out: Pf D6 IC50

Cc1[nH]c2c(c(=O)c1-c1ccc(Oc3ccc(OC(F)(F)F)cc3)cc1)CCCC2 [JAG21, 2-methyl-3-(4-(4-(trifluoromethoxy)phenoxy)phenyl)-5,6,7,8-tetrahydroquinolin-4(1H)-one]
reduction in the number of true cysts and small organisms ([1]; 1 μM and 10 μM, EGS): statistically significant reduction | IC90 ([1]; Toxoplasma gondii, read-out: IC 90 against bradyzoites): 500 nM | Pseudocysts ([1]; part a, 1 μM): 29 ± 6 | Small organisms ([1]; part a, 1 μM): 90.5 ± 33.5 | True Cysts ([1]; part a, 1 μM): 0.5 ± 0.6 | Pseudocysts ([1]; part a, 10 μM): 25.5 ± 5.1 | Small organisms ([1]; part a, 10 μM): 73.25 ± 30.9 | True Cysts ([1]; part a, 10 μM): 0.25 ± 0.5 | Pseudocysts ([1]; part b, 1 μM): 2955 | Small organisms ([1]; part b, 1 μM): 9734 | True Cysts ([1]; part b, 1 μM): 54 | Pseudocysts ([1]; part b, 10 μM): 2638 | Small organisms ([1]; part b, 10 μM): 7309 | True Cysts ([1]; part b, 10 μM): 22 | IC50 [2, 3]: 14.3 nM | IC50 ([2]; including all drug resistant strains, read-out: inhibitor of Plasmodium falciparum): 40 to 65 nM

Cc1[nH]c2c(c(=O)c1-c1ccc(Oc3ccccc3)cc1)CCCC2 [MJM170]
reduction of EGS bradyzoites in cysts in vitro [1]: markedly reduces EGS bradyzoites in cysts | IC50 ([1]; Toxoplasma gondii, read-out: Brady IC50): 1000 to 10000 nM | IC50 ([1]; Toxoplasma gondii, read-out: T. gondii Bradyzoite IC50): 4000 nM | IC50 ([2]; C2B strain (multi-drug resistant, atovaquone resistant), read-out: P. falciparum IC50): 10 nM | IC50 ([2]; C2B strain, read-out: SYBR Green C2B IC50): 10 nM | IC50 ([2]; D6 strain (drug sensitive), read-out: P. falciparum IC50): 10 nM | IC50 [2, 3]: 10 nM | IC50 ([2]; D6 strain, read-out: SYBR Green D6 IC50): 10 nM | IC50 ([2]; TM91C235 strain (multi-drug resistant), read-out: P. falciparum IC50): 30 nM | IC50 ([2]; TM91C235 strain, read-out: SYBR Green C235 IC50): 30 nM | IC50 ([2]; W2 strain (chloroquine resistant), read-out: P. falciparum IC50): 30 nM | IC50 ([2]; W2 strain, read-out: SYBR Green W2 IC50): 30 nM | IC50 ([2]; wild type and multi-drug resistant, all strains, read-out: IC50 against P. falciparum): < 30 nM | MDCK-MDR1 Efflux Ratio (MDCK-MDR1 cells): 1.23
